Experimental data from patent publication US20260125371A1, “METHOD FOR INHIBITING CLOSTRIDIOIDES DIFFICILE SPORE GERMINATION” (UNIVERSITY OF NOTRE DAME DU LAC, priority 2022, published 2026).
In brackets after ≈: the same amount, converted by molar mass. Where two headings read alike, the source gives them in different places.

Assays:
[1] = test system: C. difficile ATCC 43255; experiment: Determination of minimal-inhibitory concentrations (microdilution), C. difficile ATCC 43255; assay type: cell-based, Clostridioides difficile; details: Clostridioides difficile
[2] = test system: S. aureus; experiment: MIC against S. aureus strains; assay type: cell-based; details: Staphylococcus aureus, ATCC29213, 24 h, S. aureus ATCC 29213, 24 h; read-out: MIC (μg/mL) 24 h
[3] = test system: THP-1 cells; experiment: Lactate dehydrogenase (LDH) cytotoxicity assay; assay type: cell-based, human; details: Homo sapiens, THP-1, 24 h, read-out: LDH (IC50)
[4] = test system: C. difficile ATCC 43255; details: cited from earlier work
[5] = test system: C. difficile strains; details: cited from earlier work
[6] = test system: Bacteroides fragilis HM-709; details: cited from earlier work
[7] = test system: Bifidobacterium longum HM-846; details: cited from earlier work
[8] = test system: Corynebacterium spp. HM-784; details: cited from earlier work
[9] = test system: Fusobacterium nucleatum HM-992; details: cited from earlier work
[10] = test system: Lactobacillus gasseri HM-644; details: cited from earlier work
[11] = test system: Veillonella sp. HM-49; details: cited from earlier work
[12] = test system: Eubacterium sp. HM-178; details: cited from earlier work
[13] = C. difficile strains of Table 4

Oc1ccc(-c2nc(-c3ccc(OC4CCCC4)cc3)no2)cc1 [Compound 2]
MIC ([1]; ATCC43255, 24 h, C. difficile ATCC 43255, 24 h, read-out: MIC (μg/mL) 24 h): 2 µg/mL (≈ 6.2 µM)
MIC ([1]; ATCC43255, Table 1, strain ATCC 43255, read-out: MIC C. difficile): 2 µg/mL (≈ 6.2 µM)
MIC [2]: 2 µg/mL (≈ 6.2 µM)
IC50 [3]: 18 ± 1 µg/mL (≈ 55.8 µM)
MIC ([4]; C. difficile ATCC43255): 2 µg/mL (≈ 6.2 µM)
MIC ([4]; C. difficile ATCC 43255, earlier publication): 2 µg/mL (≈ 6.2 µM)
MIC ([4]; strain ATCC43255): 2 µg/mL (≈ 6.2 µM)
IMIC50 (101 strains) ([5]; 101 C. difficile strains): 2 µg/mL
MIC90 (101 strains) ([5]; 101 C. difficile strains): 4 µg/mL (≈ 12.4 µM)
MIC ([5]; C. difficile 23828, resistant to FDX): 4 µg/mL (≈ 12.4 µM)
MIC ([5]; C. difficile 24531, resistant to VAN): 4 µg/mL (≈ 12.4 µM)
MIC ([5]; C. difficile 26675, resistant to MTZ): 4 µg/mL (≈ 12.4 µM)
MIC ([5]; C. difficile BAA-1803): 2 µg/mL (≈ 6.2 µM)
MIC ([5]; C. difficile BAA-1870): 2 µg/mL (≈ 6.2 µM)
MIC ([5]; C. difficile NR49292): 2 µg/mL (≈ 6.2 µM)
MIC ([5]; C. difficile NR49294): 2 µg/mL (≈ 6.2 µM)
MIC ([5]; C. difficile NR49302): 2 µg/mL (≈ 6.2 µM)
MIC ([5]; C. difficile NR49305): 2 µg/mL (≈ 6.2 µM)
MIC ([5]; C. difficile NR49310): 4 µg/mL (≈ 12.4 µM)
MIC ([5]; C. difficile NR49318): 4 µg/mL (≈ 12.4 µM)
MIC50 [5, 13]: 2 µg/mL (≈ 6.2 µM)
MIC90 [5, 13]: 4 µg/mL (≈ 12.4 µM)
MIC90 ([5]; C. difficile, reported earlier): 4 µg/mL (≈ 12.4 µM)
MIC ([5]; strain ATCC43598): 2 µg/mL (≈ 6.2 µM)
MIC ([5]; strain BAA-1801): 2 µg/mL (≈ 6.2 µM)
MIC ([5]; strain BAA-1803): 2 µg/mL (≈ 6.2 µM)
MIC ([5]; strain BAA-1804): 2 µg/mL (≈ 6.2 µM)
MIC ([5]; strain BAA-1812): 2 µg/mL (≈ 6.2 µM)
MIC ([5]; strain BAA-1814): 2 µg/mL (≈ 6.2 µM)
MIC ([5]; strain BAA-1870): 2 µg/mL (≈ 6.2 µM)
MIC ([5]; strain HM-88): 4 µg/mL (≈ 12.4 µM)
MIC ([5]; strain HM-89): 4 µg/mL (≈ 12.4 µM)
MIC ([5]; strain HM-745): 4 µg/mL (≈ 12.4 µM)
MIC ([5]; strain HM-746): 4 µg/mL (≈ 12.4 µM)
MIC ([5]; strain HM-747): 4 µg/mL (≈ 12.4 µM)
MIC ([5]; strain NR49292): 2 µg/mL (≈ 6.2 µM)
MIC ([5]; strain NR49294): 2 µg/mL (≈ 6.2 µM)
MIC ([5]; strain NR49302): 2 µg/mL (≈ 6.2 µM)
MIC ([5]; strain NR49305): 2 µg/mL (≈ 6.2 µM)
MIC ([5]; strain NR49310): 4 µg/mL (≈ 12.4 µM)
MIC ([5]; strain NR49318): 4 µg/mL (≈ 12.4 µM)
MIC ([5]; strain NR-13427): 2 µg/mL (≈ 6.2 µM)
MIC ([5]; strain NR-13428): 4 µg/mL (≈ 12.4 µM)
MIC ([5]; strain NR-13429): 4 µg/mL (≈ 12.4 µM)
MIC ([5]; strain NR-13430): 2 µg/mL (≈ 6.2 µM)
MIC ([5]; strain NR-13431): 2 µg/mL (≈ 6.2 µM)
MIC ([5]; strain NR-13433): 4 µg/mL (≈ 12.4 µM)
MIC ([5]; strain NR-13434): 2 µg/mL (≈ 6.2 µM)
MIC ([5]; strain NR-13435): 4 µg/mL (≈ 12.4 µM)
MIC ([5]; strain NR-13436): 4 µg/mL (≈ 12.4 µM)
MIC ([5]; strain NR-13437): 4 µg/mL (≈ 12.4 µM)
MIC ([5]; strain NR-13438): 2 µg/mL (≈ 6.2 µM)
MIC ([5]; strain NR-13553): 2 µg/mL (≈ 6.2 µM)
MIC ([5]; strain NR-32882): 2 µg/mL (≈ 6.2 µM)
MIC ([5]; strain NR-32883): 2 µg/mL (≈ 6.2 µM)
MIC ([5]; strain NR-32884): 2 µg/mL (≈ 6.2 µM)
MIC ([5]; strain NR-32885): 4 µg/mL (≈ 12.4 µM)
MIC ([5]; strain NR-32886): 2 µg/mL (≈ 6.2 µM)
MIC ([5]; strain NR-32887): 4 µg/mL (≈ 12.4 µM)
MIC ([5]; strain NR-32888): 4 µg/mL (≈ 12.4 µM)
MIC ([5]; strain NR-32889): 4 µg/mL (≈ 12.4 µM)
MIC ([5]; strain NR-32890): 2 µg/mL (≈ 6.2 µM)
MIC ([5]; strain NR-32891): 4 µg/mL (≈ 12.4 µM)
MIC ([5]; strain NR-32892): 4 µg/mL (≈ 12.4 µM)
MIC ([5]; strain NR-32895): 2 µg/mL (≈ 6.2 µM)
MIC ([5]; strain NR-32896): 2 µg/mL (≈ 6.2 µM)
MIC ([5]; strain NR-32897): 2 µg/mL (≈ 6.2 µM)
MIC ([5]; strain NR-32900): 4 µg/mL (≈ 12.4 µM)
MIC ([5]; strain NR-32903): 2 µg/mL (≈ 6.2 µM)
MIC ([5]; strain NR-32904): 2 µg/mL (≈ 6.2 µM)
MIC ([5]; strain NR-49277): 2 µg/mL (≈ 6.2 µM)
MIC ([5]; strain NR-49278): 2 µg/mL (≈ 6.2 µM)
MIC ([5]; strain NR-49279): 2 µg/mL (≈ 6.2 µM)
MIC ([5]; strain NR-49280): 4 µg/mL (≈ 12.4 µM)
MIC ([5]; strain NR-49281): 4 µg/mL (≈ 12.4 µM)
MIC ([5]; strain NR-49282): 4 µg/mL (≈ 12.4 µM)
MIC ([5]; strain NR-49283): 4 µg/mL (≈ 12.4 µM)
MIC ([5]; strain NR-49284): 4 µg/mL (≈ 12.4 µM)
MIC ([5]; strain NR-49285): 2 µg/mL (≈ 6.2 µM)
MIC ([5]; strain NR-49286): 2 µg/mL (≈ 6.2 µM)
MIC ([5]; strain NR-49287): 2 µg/mL (≈ 6.2 µM)
MIC ([5]; strain NR-49288): 2 µg/mL (≈ 6.2 µM)
MIC ([5]; strain NR-49289): 2 µg/mL (≈ 6.2 µM)
MIC ([5]; strain NR-49290): 4 µg/mL (≈ 12.4 µM)
MIC ([5]; strain NR-49291): 2 µg/mL (≈ 6.2 µM)
MIC ([5]; strain NR-49293): 2 µg/mL (≈ 6.2 µM)
MIC ([5]; strain NR-49295): 4 µg/mL (≈ 12.4 µM)
MIC ([5]; strain NR-49296): 4 µg/mL (≈ 12.4 µM)
MIC ([5]; strain NR-49297): 2 µg/mL (≈ 6.2 µM)
MIC ([5]; strain NR-49298): 4 µg/mL (≈ 12.4 µM)
MIC ([5]; strain NR-49299): 2 µg/mL (≈ 6.2 µM)
MIC ([5]; strain NR-49300): 2 µg/mL (≈ 6.2 µM)
MIC ([5]; strain NR-49301): 2 µg/mL (≈ 6.2 µM)
MIC ([5]; strain NR-49303): 2 µg/mL (≈ 6.2 µM)
MIC ([5]; strain NR-49304): 4 µg/mL (≈ 12.4 µM)
MIC ([5]; strain NR-49306): 4 µg/mL (≈ 12.4 µM)
MIC ([5]; strain NR-49307): 4 µg/mL (≈ 12.4 µM)
MIC ([5]; strain NR-49308): 2 µg/mL (≈ 6.2 µM)
MIC ([5]; strain NR-49309): 2 µg/mL (≈ 6.2 µM)
MIC ([5]; strain NR-49311): 2 µg/mL (≈ 6.2 µM)
MIC ([5]; strain NR-49312): 4 µg/mL (≈ 12.4 µM)
MIC ([5]; strain NR-49313): 2 µg/mL (≈ 6.2 µM)
MIC ([5]; strain NR-49314): 2 µg/mL (≈ 6.2 µM)
MIC ([5]; strain NR-49315): 4 µg/mL (≈ 12.4 µM)
MIC ([5]; strain NR-49316): 4 µg/mL (≈ 12.4 µM)
MIC ([5]; strain NR-49317): 4 µg/mL (≈ 12.4 µM)
MIC ([5]; strain NR-49319): 4 µg/mL (≈ 12.4 µM)
MIC ([5]; strain NR-49320): 2 µg/mL (≈ 6.2 µM)
MIC ([5]; strain NR-49321): 4 µg/mL (≈ 12.4 µM)
MIC ([5]; strain NR-49323): 4 µg/mL (≈ 12.4 µM)
MIC ([5]; strain NR-49324): 4 µg/mL (≈ 12.4 µM)
MIC ([5]; strain NR-49325): 4 µg/mL (≈ 12.4 µM)
MIC ([5]; strain NR-49326): 2 µg/mL (≈ 6.2 µM)
MIC ([5]; strain NR-49327): 2 µg/mL (≈ 6.2 µM)
MIC ([5]; strain NR-49328): 2 µg/mL (≈ 6.2 µM)
MIC ([5]; strain NR-49329): 2 µg/mL (≈ 6.2 µM)
MIC ([5]; strain RMA23691): 4 µg/mL (≈ 12.4 µM)
MIC ([5]; strain RMA23828): 4 µg/mL (≈ 12.4 µM)
MIC ([5]; strain RMA24531): 4 µg/mL (≈ 12.4 µM)
MIC ([5]; strain RMA24923): 4 µg/mL (≈ 12.4 µM)
MIC ([5]; strain RMA26675): 4 µg/mL (≈ 12.4 µM)
MIC ([5]; strain RMA27081): 4 µg/mL (≈ 12.4 µM)
MIC ([5]; strain RMA27173): 4 µg/mL (≈ 12.4 µM)
MIC [6]: 2 µg/mL (≈ 6.2 µM)
MIC [7]: 1 µg/mL (≈ 3.1 µM)
MIC [8]: 0.5 µg/mL (≈ 1.55 µM)
MIC [9]: 2 µg/mL (≈ 6.2 µM)
MIC [10]: >128 µg/mL
MIC [11]: >128 µg/mL
MIC [12]: 4 µg/mL (≈ 12.4 µM)
